Laboratory results published in patent US20230027361A1, “METTL3 MODULATORS” (priority 2019, published 2023).
Like-named read-outs stand apart in the source and are kept apart here.

What was measured:
METTL3/METTL14 = METTL3/METTL14 (Homo sapiens, UniProt Q86U44); assay: METTL3-14 Standard Enzyme Assay (METTL3 biochemical assay)
In short: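 METTL3/METTL14 at 2.5 nM, preincubated 5 min with compound in 20 mM HEPES pH 7.5, 50 mM KCl, 250 μM MgCl2, 1 mM DTT, at ambient temperature. Started with 100 nM 3′-biotinylated RNA and 100 nM ³H-SAM, quenched at 30 min with 15 μM cold SAM. Methylation read by scintillation on streptavidin flashplates.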

METTL16 = target: T1, METTL16 (Homo sapiens, UniProt Q86W50); assay: METTL16 Assay (METTL16 biochemical assay); settings: read-out: METTL16 IC50
T1 sequence (Q86W50 1-562): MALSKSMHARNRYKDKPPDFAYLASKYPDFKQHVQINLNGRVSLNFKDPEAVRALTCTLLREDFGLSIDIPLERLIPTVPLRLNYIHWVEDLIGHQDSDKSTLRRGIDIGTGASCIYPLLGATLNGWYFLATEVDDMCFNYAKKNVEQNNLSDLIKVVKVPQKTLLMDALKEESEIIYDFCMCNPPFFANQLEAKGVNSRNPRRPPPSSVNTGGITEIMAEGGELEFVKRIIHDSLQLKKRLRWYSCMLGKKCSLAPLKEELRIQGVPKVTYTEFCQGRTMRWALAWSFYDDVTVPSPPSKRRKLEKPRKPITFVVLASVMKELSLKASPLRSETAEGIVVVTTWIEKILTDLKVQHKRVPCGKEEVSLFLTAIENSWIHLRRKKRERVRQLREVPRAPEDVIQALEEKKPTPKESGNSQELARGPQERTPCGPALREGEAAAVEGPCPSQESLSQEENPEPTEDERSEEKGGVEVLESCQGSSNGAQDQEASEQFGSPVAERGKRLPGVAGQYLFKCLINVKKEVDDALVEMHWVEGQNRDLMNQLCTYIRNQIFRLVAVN
Description: Assays were performed in a 25 μl-volume in 384-well V-bottom polypropylene microplates (Greiner Bio-One, cat. No. 781280) at ambient temperature. Optimized 1× assay buffer was 20 mM HEPES pH 7.5, 50 mM KCl, 1 mM DTT, 0.01% Tween, 0.01% BSG, 0.004 U/μl RNAseOUT (cat. No. 10777019, ThermoFisher Scientific, Waltham, Mass.). For compound screening METTL16 (final concentration, f.c.=100 nM) was added using a Multidrop Combi (ThermoFisher Scientific, Waltham, Mass.) and preincubated for 5 min. Reactions were started by adding 3′ biotinylated RNA ([…]-biotin) (f.c.=50 nM), 3H-SAM (f.c.=200 nM) and non-radiolabeled SAM (f.c.=800 nM) substrates. Reactions proceeded for 20 minutes and were quenched with excess non-radioactive SAM (f.c.=100 μM). The reactions were then transferred to streptavidin-coated flashplates and incubated for 2 hours at 25° C. Following two washing cycles with 0.1% Tween-20, the plates were sealed and read on a TopCount (PerkinElmer, Waltham, Mass.) plate-based scintillation counter. For determination of kinetic parameters, reaction times were optimized so that measurements were taken during the initial velocity phase of the reaction.

PRMT5-MEP50 = PRMT5-MEP50 (Homo sapiens, UniProt O14744); assay: PRMT5 Assay (PRMT5 biochemical assay)
In short: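 PRMT5-MEP50 (2.5 nM final) preincubated 5 min with compound, then reacted 60 min at ambient temperature with 100 nM biotinylated N-acetyl histone H4 peptide and 250 nM 3H-SAM in 20 mM Tris-HCl pH 8.0, 1 mM DTT, 0.01% Tween. Quenched with 15 μM cold SAM; methylated peptide captured on streptavidin flashplates, scintillation counted.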

METTL1/WDR4 = METTL1/WDR4 (Homo sapiens, UniProt Q9UBP6); assay: METTL1 Assay (METTL1 biochemical assay); settings: read-out: METTL1 IC50; METTL1 biochemical assay
In short: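 Radiometric methyltransfer by METTL1/WDR4 (6.25 nM f.c., 5 min preincubation) at ambient temperature in HEPES pH 7.5, KCl, MgCl2, DTT; started with 25 nM 3′-biotinylated RNA and 60 nM 3H-SAM, run 20 min, quenched with 15 μM cold SAM. Product captured on streptavidin flashplates (2 h, 25° C), counted by scintillation.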

MOLM-13 cells [1] = assay: MOLM-13 48 Hour Cell Proliferation Assay; format: cell-based; settings: Homo sapiens
Description: MOLM-13 (DSMZ) cells were seeded at 1000 cells per well in a volume of 44 μL in a Falcon 384-well tissue culture treated clear bottom microplate in RPMI 1640 media containing 10% fetal bovine serum using a Multidrop Combi (ThermoFisher Scientific). Cells were incubated overnight at 37° C. in a humidified tissue culture incubator. The Mosquito® HTS Liquid Handler was used to make a compound/media intermediate plate by aliquoting 1 μL of compound from the initial compound dilution plate (concentrations ranging from 10.0 mM to 38.0 nM in 100% DMSO) into a V bottom 384-well screen matrix plate containing 49 μL of media containing the appropriate serum (50-fold dilution, 2% DMSO). The Apricot liquid handling system was used to transfer 6.2 μL compounds from the intermediate plate into the Falcon 384-well tissue culture plate containing 44 μL cells (10-point, 4-fold dilution spanning concentrations 25.0 μM to […], 0.25% DMSO final), and placed in a humidified tissue culture incubator at 37° C. After 48 hours, 25 μL of Cell Titer-Glo reagent (Promega) was added to each well using a Multidrop Combi. The plate was protected from light and placed on an IKA plate shaker for at 300 rpm for 10 minutes at room temperature. The plate was read on an EnVision plate reader (Perkin Elmer) using the Ultra Sensitive Luminescence protocol. Data analysis was performed by normalizing the raw luminescence units to an average of the positive control values for staurosporine (100% cell death) and the negative control values for DMSO (0% cell death). An IC50 was calculated using a 4-parameter logistic nonlinear regression model in GraphPad Prism.

MOLM-13 cells [2] = assay: MOLM-13 96 Hour Cell Proliferation Assay; format: cell-based; settings: Homo sapiens
Description: MOLM-13 (DSMZ) cells were seeded at 600 cells per well in a volume of 44 μL in a Greiner Bio-One CELLSTAR™ 384 Well Polystyrene Cell Culture clear bottom microplate in RPMI 1640 media containing 10% fetal bovine serum using a Multidrop Combi (ThermoFisher Scientific). Cells were incubated overnight at 37° C. in a humidified tissue culture incubator. To prevent evaporation or to reduce edge effect, add 50 μL or more H2O to an empty plate, cover, and place on top of the cell plates. The Mosquito® HTS Liquid Handler was used to make a compound/media intermediate plate by aliquoting 1 μL of compound from the initial compound dilution plate (concentrations ranging from 10.0 mM to 38.0 nM in 100% DMSO) into Bio-One 384-well polypropylene conical bottom microplate containing 49 μL of media containing the appropriate serum (50-fold dilution, 2% DMSO, compound concentrations ranging from 200.0 μM and […]). The Apricot liquid handling system was used to transfer 6.2 μL compounds from the intermediate plate into the seeding plate containing 44 μL cells (8-fold dilution spanning concentrations 25.0 μM to […], 0.25% DMSO final), and placed in a humidified tissue culture incubator at 37° C. After 96 hours, 25 μL of Cell Titer-Glo reagent (Promega) was added to each well using an Integra liquid handling system. The plate was protected from light using TopSeal-A (Black) film over the entire plate, added White Bottom seal film on the bottom of the entire plate for a better reading on the Envision, and placed on an IKA plate shaker for at 300 rpm for 10 minutes at room temperature. The plate was read on an EnVision plate reader (Perkin Elmer) using the Ultra Sensitive Luminescence protocol. Data analysis was performed by normalizing the raw luminescence units to an average of the positive control values for staurosporine (100% cell death) and the negative control values for DMSO (0% cell death). An IC50 was calculated using a 4-parameter logistic nonlinear regression model in GraphPad Prism.

[3] = METTL3 biochemical assay, read-out: METTL3 IC50
[4] = PRMT5 biochemical assay, read-out: PRMT5 IC50

Sequence of METTL3/METTL14 (Q86U44 whole entry, species assumed): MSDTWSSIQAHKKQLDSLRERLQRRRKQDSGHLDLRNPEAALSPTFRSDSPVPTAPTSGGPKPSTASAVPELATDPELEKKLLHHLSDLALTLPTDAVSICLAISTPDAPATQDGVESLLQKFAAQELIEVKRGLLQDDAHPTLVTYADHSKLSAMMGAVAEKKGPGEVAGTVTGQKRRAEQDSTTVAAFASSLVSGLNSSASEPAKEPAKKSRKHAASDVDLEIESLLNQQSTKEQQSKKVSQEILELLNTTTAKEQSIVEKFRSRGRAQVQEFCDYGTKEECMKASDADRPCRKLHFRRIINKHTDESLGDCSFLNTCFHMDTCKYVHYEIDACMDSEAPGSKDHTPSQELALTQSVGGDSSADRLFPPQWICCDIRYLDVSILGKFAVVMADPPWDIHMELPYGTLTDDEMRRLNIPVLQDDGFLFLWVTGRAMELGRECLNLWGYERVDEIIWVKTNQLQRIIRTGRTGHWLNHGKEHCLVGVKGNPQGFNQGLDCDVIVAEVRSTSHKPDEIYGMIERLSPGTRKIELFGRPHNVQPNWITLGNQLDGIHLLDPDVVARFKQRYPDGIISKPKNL
Sequence of METTL3/METTL14 (Q9HCE5 whole entry partner, species assumed): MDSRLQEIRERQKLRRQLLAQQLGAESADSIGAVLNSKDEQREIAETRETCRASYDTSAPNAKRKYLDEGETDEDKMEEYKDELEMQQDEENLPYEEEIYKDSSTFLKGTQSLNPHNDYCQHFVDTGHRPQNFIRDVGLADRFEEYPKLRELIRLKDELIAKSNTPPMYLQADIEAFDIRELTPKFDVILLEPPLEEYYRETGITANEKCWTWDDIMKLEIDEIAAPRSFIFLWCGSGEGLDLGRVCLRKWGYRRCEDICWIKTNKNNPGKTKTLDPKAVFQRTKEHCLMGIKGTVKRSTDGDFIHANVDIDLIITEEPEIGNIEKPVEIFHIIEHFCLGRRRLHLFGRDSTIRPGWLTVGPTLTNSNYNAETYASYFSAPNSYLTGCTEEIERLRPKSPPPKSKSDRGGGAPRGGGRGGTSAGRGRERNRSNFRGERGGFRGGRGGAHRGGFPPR
Sequence of PRMT5-MEP50 (O14744 whole entry): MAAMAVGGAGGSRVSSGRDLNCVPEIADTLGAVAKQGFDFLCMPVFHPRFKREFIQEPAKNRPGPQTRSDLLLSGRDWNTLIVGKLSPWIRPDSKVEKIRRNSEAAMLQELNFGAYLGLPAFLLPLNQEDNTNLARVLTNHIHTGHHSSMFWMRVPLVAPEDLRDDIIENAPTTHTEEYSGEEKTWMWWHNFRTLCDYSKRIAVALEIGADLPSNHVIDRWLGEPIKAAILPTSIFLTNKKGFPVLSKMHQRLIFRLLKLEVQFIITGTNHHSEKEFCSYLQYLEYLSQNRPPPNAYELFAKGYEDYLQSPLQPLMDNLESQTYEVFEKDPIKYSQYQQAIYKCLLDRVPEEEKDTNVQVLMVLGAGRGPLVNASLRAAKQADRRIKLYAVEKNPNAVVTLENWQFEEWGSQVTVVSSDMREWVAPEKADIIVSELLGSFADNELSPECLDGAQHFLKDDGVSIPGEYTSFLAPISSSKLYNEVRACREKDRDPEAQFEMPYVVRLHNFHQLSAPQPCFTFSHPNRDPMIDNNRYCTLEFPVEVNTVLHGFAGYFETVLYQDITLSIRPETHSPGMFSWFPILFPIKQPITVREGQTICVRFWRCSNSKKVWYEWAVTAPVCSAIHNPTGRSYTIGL
Sequence of PRMT5-MEP50 (Q9BQA1 whole entry partner): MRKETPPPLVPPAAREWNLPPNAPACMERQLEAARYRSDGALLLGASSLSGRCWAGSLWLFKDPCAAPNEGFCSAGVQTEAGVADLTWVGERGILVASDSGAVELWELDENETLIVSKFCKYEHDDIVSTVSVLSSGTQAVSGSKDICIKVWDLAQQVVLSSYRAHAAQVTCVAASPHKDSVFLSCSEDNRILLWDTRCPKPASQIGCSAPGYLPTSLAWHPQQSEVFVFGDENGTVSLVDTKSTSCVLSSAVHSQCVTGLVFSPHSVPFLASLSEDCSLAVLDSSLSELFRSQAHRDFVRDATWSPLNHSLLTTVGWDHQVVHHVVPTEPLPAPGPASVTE
Sequence of METTL1/WDR4 (Q9UBP6 whole entry, species assumed): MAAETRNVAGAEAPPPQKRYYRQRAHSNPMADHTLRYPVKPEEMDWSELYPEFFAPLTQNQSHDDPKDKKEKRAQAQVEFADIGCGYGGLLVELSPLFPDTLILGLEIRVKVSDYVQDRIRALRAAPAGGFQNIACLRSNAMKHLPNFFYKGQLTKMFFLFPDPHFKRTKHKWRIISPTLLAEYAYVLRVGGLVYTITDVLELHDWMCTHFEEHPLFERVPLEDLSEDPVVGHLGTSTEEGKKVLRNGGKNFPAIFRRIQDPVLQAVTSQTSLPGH
Sequence of METTL1/WDR4 (P57081 whole entry partner, species assumed): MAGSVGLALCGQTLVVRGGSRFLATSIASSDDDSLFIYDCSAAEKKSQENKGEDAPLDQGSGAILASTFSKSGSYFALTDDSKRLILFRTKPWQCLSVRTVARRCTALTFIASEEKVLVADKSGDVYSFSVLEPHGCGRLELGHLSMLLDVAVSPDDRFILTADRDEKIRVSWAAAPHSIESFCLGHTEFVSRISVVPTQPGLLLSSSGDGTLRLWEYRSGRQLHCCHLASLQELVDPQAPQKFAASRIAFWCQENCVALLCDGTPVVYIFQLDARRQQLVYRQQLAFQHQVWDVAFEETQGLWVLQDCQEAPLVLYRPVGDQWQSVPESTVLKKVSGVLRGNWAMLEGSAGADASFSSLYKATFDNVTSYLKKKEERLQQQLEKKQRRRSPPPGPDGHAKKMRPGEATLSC

SMILES	IC50 (METTL3/METTL14; [3]) [µM]	IC50 (PRMT5-MEP50; [4]) [µM]	IC50 (MOLM-13 cells [1]) [µM]	IC50 (METTL3/METTL14) [µM]	IC50 (MOLM-13 cells [2]) [µM]	further results
CNc1ccc2ccc(OC[C@H]3O[C@@H](n4cc(-c5cnn(C)c5)c5c(N)ncnc54)[C@@H](F)[C@@H]3O)cc2n1 [I-11]						IC50 (METTL3/METTL14; read-out: METTL3 IC50, METTL3 biochemical assay): 0.01 to 0.1 µM; IC50 (METTL16): > 1 µM; IC50 (PRMT5-MEP50; read-out: PRMT5 IC50, PRMT5 biochemical assay): 0.1 to 1 µM
Nc1cc(C2CC2)nc2cc(OC[C@H]3O[C@@H](n4cc(Br)c5c(N)ncnc54)[C@@H](F)[C@@H]3O)ccc12 [I-14]	0.01 to 0.1	0.1 to 1				IC50 (METTL16): > 1 µM
Cc1cc(N)c2ccc(OC[C@H]3O[C@@H](n4cc(C5CCCC5)c5c(N)ncnc54)[C@H](O)[C@@H]3O)cc2n1 [I-16]	0.01 to 0.1	0.01 to 0.1				IC50 (METTL16): > 1 µM
CNc1ccc2ccc(OC[C@H]3O[C@@H](n4cc(C5CCN(C)C5)c5c(N)ncnc54)[C@@H](F)[C@@H]3O)cc2n1 (some centres unmarked) [I-17]	0.01 to 0.1	0.1 to 1				IC50 (METTL16): > 1 µM
CCc1cc(N)c2ccc(OC[C@H]3O[C@@H](n4cc(Br)c5c(N)ncnc54)[C@@H](F)[C@@H]3O)cc2n1 [I-18]	0.01 to 0.1	0.1 to 1				IC50 (METTL16): > 1 µM
Cc1cc(N)c2ccc(OC[C@H]3O[C@@H](n4cc(Br)c5c(N)ncnc54)[C@@H](F)[C@@H]3O)cc2n1 [I-27]	0.01 to 0.1	0.1 to 1				IC50 (METTL16): > 1 µM
Nc1ccc2ccc(CC[C@H]3C[C@@H](n4cc(C5CCCC5)c5c(N)ncnc54)[C@H](O)[C@@H]3O)cc2n1 [I-60]	0.01 to 0.1	< 0.01	1 to 10			IC50 (METTL1/WDR4): > 1 µM; IC50 (MOLM-13 cells [2]; MOLM-13, 96 h): < 1 µM
CNc1ccc2ccc(CC[C@H]3C[C@@H](n4ccc5c(N)ncnc54)[C@H](O)[C@@H]3O)cc2n1 [I-123]	< 0.01	< 0.01	> 10			IC50 (METTL1/WDR4): > 1 µM; IC50 (MOLM-13 cells [2]; MOLM-13, 96 h): < 1 µM
CCc1cc(N(C)C)c2ccc(OC[C@H]3O[C@@H](n4cc(-c5ccn(C)n5)c5c(N)ncnc54)[C@@H](F)[C@@H]3O)cc2n1 [I-153]			1 to 10	< 0.01	< 1	
CCc1cc(N(C)C2CC2)c2ccc(OC[C@H]3O[C@@H](n4cc(-c5ccn(C)n5)c5c(N)ncnc54)[C@@H](F)[C@@H]3O)cc2n1 [I-154]			1 to 10	< 0.01	1 to 10	
CCc1cc(N(C)CC2CC2)c2ccc(OC[C@H]3O[C@@H](n4cc(-c5ccn(C)n5)c5c(N)ncnc54)[C@@H](F)[C@@H]3O)cc2n1 [I-155]			1 to 10	< 0.01	< 1	
CCc1cc(N2CCOCC2)c2ccc(OC[C@H]3O[C@@H](n4cc(-c5ccn(C)n5)c5c(N)ncnc54)[C@@H](F)[C@@H]3O)cc2n1 [I-156]			1 to 10	< 0.01	< 1	
CCc1cc(NCCOC)c2ncc(OC[C@H]3O[C@@H](n4cc(-c5ccn(C)n5)c5c(N)ncnc54)[C@H](O)[C@@H]3O)cc2n1 [I-159]			> 10	< 0.01	1 to 10	
CCc1cc(N(C)C2CC2)c2ccc(OC[C@H]3O[C@@H](n4cc(-c5ccn(C)n5)c5c(N)ncnc54)C[C@@H]3O)cc2n1 [I-160]			1 to 10	< 0.01	1 to 10	
CN(CCO)c1ccc2ccc(OC[C@H]3O[C@@H](n4cc(-c5ccn(C)n5)c5c(N)ncnc54)[C@@H](F)[C@@H]3O)cc2n1 [I-162]			1 to 10	< 0.01	< 1	IC50 (PRMT5-MEP50): > 1 µM
Nc1ncnc2c1c(CO)cn2[C@@H]1O[C@H](COc2ccc3ccc(N4CCC4)nc3c2)[C@@H](O)[C@@H]1F [I-163]	< 0.01	> 1	1 to 10			IC50 (MOLM-13 cells [2]; MOLM-13, 96 h): 1 to 10 µM
Nc1ncnc2c1ccn2[C@H]1C[C@H](O)[C@@H](COc2ccc3ccc(N4CCC4)nc3c2)O1 [I-165]	< 0.01	> 1	> 10			IC50 (MOLM-13 cells [2]; MOLM-13, 96 h): 1 to 10 µM
Nc1ncnc2c1c(-n1ccc(C(F)(F)F)n1)cn2[C@H]1C[C@H](O)[C@@H](COc2ccc3ccc(N4CCC4)nc3c2)O1 [I-178]			1 to 10	< 0.01	1 to 10	IC50 (PRMT5-MEP50): > 1 µM
Nc1ncnc2c1ccn2[C@H]1C[C@H](O)[C@@H](COc2ccc3ccc(NC4CC4)nc3c2)O1 [I-180]	0.01 to 0.1	0.1 to 1	> 10			IC50 (MOLM-13 cells [2]; MOLM-13, 96 h): > 10 µM
Cn1ccc(-c2cn([C@@H]3O[C@H](COc4ccc5ccc(N6CC(N)C6)nc5c4)[C@@H](O)[C@@H]3F)c3ncnc(N)c23)n1 [I-181]			< 1	< 0.01	< 1	IC50 (PRMT5-MEP50): > 1 µM
Nc1ncnc2c1c(-n1ccc(C(F)(F)F)n1)cn2[C@@H]1O[C@H](COc2ccc3ccc(N4CCC4)nc3c2)[C@@H](O)[C@@H]1F [I-221]			1 to 10	< 0.01	1 to 10	IC50 (PRMT5-MEP50): > 1 µM
